Data published in patent US20120149572A1, “USE OF AGROCHEMICAL MIXTURES FOR INCREASING THE HEALTH OF A PLANT” (BASF SE, priority 2009, published 2012).

Tested on: cotyledons
Assay: Growth of excised cucumber cotyledons (fresh biomass) in treatment solution
Format: in vivo, Cucumbers
Conditions: for Mean cotyledon biomass: 3 days in the dark at 25° C., 20 cotyledons per treatment; for Observed efficacy (%): % biomass increase compared to 0.5% DMSO control; for growth stimulation of the cotyledons: applied alone
Protocol: The effect of dicamba as an example for compound (I), pyraclostrobin as an example for compound (II) and the respective mixture comprising both compounds on the growth of cotyledons, as one indicator of a plant's health, was evaluated. Cucumbers were sown and germinated in the dark at 25° C. for 4 days. Subsequently, 20 cotyledons per treatment were cut and placed in a Petri dish containing 20 ml of the treatment solution. Control cotyledons were treated with the 0.5% DMSO solution. Following the incubation in the dark at 25° C. for 3 days the cotyledons were weight and the fresh biomass recorded (table 1).
The efficacy of the tested compounds was calculated as % of biomass increase compared to the control:
E=(a/b−1)*100 • a corresponds to the biomass (mg) of the treated cotyledons after incubation; • b corresponds to the biomass (mg) of untreated cotyledons after incubation (control).
The expected efficacies of the combinations of the active ingredients were estimated using Colby's formula (Colby, S. R., Calculating synergistic and antagonistic responses of herbicide combinations, Weeds, 15, pp. 20-22, 1967) and compared with the observed efficacies.
Colby's formula: E=x+y−x*y/100 • E expected efficacy, expressed in % of the untreated control, when using the mixture comprising the compounds A and B at the concentrations a and b; • x efficacy, expressed in % of the untreated control, when using compound A at the concentration a; • y efficacy, expressed in % of the untreated control, when using compound B at the concentration b.

Structure (SMILES)	Mean cotyledon biomass (2 ppm in 0.5% DMSO) [mg]	Observed efficacy (%) (2 ppm)	growth stimulation of the cotyledons	Mean cotyledon biomass (1.25 ppm in 0.5% DMSO) [mg]	Observed efficacy (%) (1.25 ppm)
COC(=O)N(OC)c1ccccc1COc1ccn(-c2ccc(Cl)cc2)n1 [Pyraclostrobin, pyraclostrobin]	67.7	−3.9	no growth stimulation	–	–
COc1c(Cl)ccc(Cl)c1C(=O)O [Dicamba, dicamba]	–	–	no growth stimulation	69.9	−0.8
